The supplement of paper PMC7394473

Key:
Settings in all cases: 72 h
U2OS [1] = test: GR50 (concentration giving GR = 0.5)
Description: (§1)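 U2OS cells treated with full dose titrations of drug; live and dead cells counted by STACK microscopy (mKate2 nuclei, SYTOX Green) at 72 h, biological triplicates. GR and FV dose responses were fitted with 4-parameter logistic models (GR lower bound -1). GRADE (0-100) is the rescaled angle of a linear fit of FV versus GR at doses with GR >= 0, giving the percentage of the response due to cell death.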

U2OS [2] = test: normalized growth rate inhibition value (GR) relative to untreated cells (GR value (dimensionless, 1 = untreated growth)); higher = less growth inhibition
Description: (§2)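 U2OS::Nuc-mKate2 cells seeded in 96-well plates and treated with eight- to ten-point half-log or log dilutions of drug in the presence of 50 nM SYTOX Green. Live (mKate2+) and dead (SYTOX+) cells were counted by IncuCyte STACK live-cell microscopy at 72 h; biological triplicates. GR is the normalised growth-rate inhibition value (Hafner 2016; 1 = untreated growth, <0 = population shrinking). FV is live/(live+dead) cells, not normalised.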

U2OS [3] = test: drug GRADE (percent of response due to cell death) (% (0-100)); higher = more death-driven response
Description: as §1

U2OS [4] = test: fractional viability (live cells / total cells); higher = less cell death
Description: as §2

U2OS [5] = test: GRmin (fitted minimal GR value at highest effect) (GR value (dimensionless)); higher = less efficacious
Description: as §1

U2OS [6] = test: FV IC50 (concentration giving fractional viability 0.5); higher = less potent killing
Description: as §1

O=C(Nc1ccc([N+](=O)[O-])cc1Cl)c1cc(Cl)ccc1O [Nicolsamide]
Settings	FV IC50 [µM]	GR50 [µM]	GRmin	drug GRADE
U2OS [1]	–	0.347	–	–
U2OS [3]	–	–	–	29.4
U2OS [5]	–	–	-0.791	–
U2OS [6]	0.803	–	–	–

Settings	fractional viability, U2OS [4]	normalized growth rate inhibition value, U2OS [2]
0.01 µM	0.98	0.975
0.0316 µM	0.975	1.01
0.1 µM	0.979	0.934
0.316 µM	0.942	0.557
1 µM	0.33	-0.319
3.16 µM	0.0377	-0.722
10 µM	0.0138	-0.81
31.6 µM	0.0218	-0.763

C[C@@H]1O[C@@H](O[C@H]2C[C@@H](O)[C@]3(CO)[C@H]4[C@H](O)C[C@]5(C)[C@@H](C6=CC(=O)OC6)CC[C@]5(O)[C@@H]4CC[C@]3(O)C2)[C@H](O)[C@H](O)[C@H]1O [Ouabain]
Settings	FV IC50 [µM]	GR50 [µM]	GRmin	drug GRADE
U2OS [1]	–	0.0164	–	–
U2OS [3]	–	–	–	30.9
U2OS [5]	–	–	-0.593	–
U2OS [6]	0.0526	–	–	–

Settings	fractional viability, U2OS [4]	normalized growth rate inhibition value, U2OS [2]
0.01 µM	0.977	0.661
0.0316 µM	0.763	0.148
0.1 µM	0.249	-0.42
0.316 µM	0.165	-0.554
1 µM	0.149	-0.569
3.16 µM	0.142	-0.6
10 µM	0.161	-0.579
31.6 µM	0.141	-0.629

Cc1[nH]c2ccccc2c1CCNCc1ccc(/C=C/C(=O)NO)cc1 [Panobinostat]
Settings	FV IC50 [µM]	GR50 [µM]	GRmin	drug GRADE
U2OS [1]	–	0.383	–	–
U2OS [3]	–	–	–	55.3
U2OS [5]	–	–	-0.832	–
U2OS [6]	1.67	–	–	–

Settings	fractional viability, U2OS [4]	normalized growth rate inhibition value, U2OS [2]
0.01 µM	0.983	1.04
0.0316 µM	0.984	1.05
0.1 µM	0.979	0.794
0.316 µM	0.933	0.61
1 µM	0.685	0.00935
3.16 µM	0.271	-0.45
10 µM	0.0583	-0.679
31.6 µM	0.00906	-0.831

COC(=O)c1ccc([C@H]2c3[nH]c4ccccc4c3C[C@H](C(=O)OC)N2C(=O)CCl)cc1 [RSL3]
Settings	FV IC50 [µM]	GR50 [µM]	GRmin	drug GRADE
U2OS [1]	–	1.58	–	–
U2OS [3]	–	–	–	54.5
U2OS [5]	–	–	-0.866	–
U2OS [6]	3.55	–	–	–

Settings	fractional viability, U2OS [4]	normalized growth rate inhibition value, U2OS [2]
0.01 µM	0.983	1.05
0.0316 µM	0.976	0.96
0.1 µM	0.977	0.977
0.316 µM	0.974	0.999
1 µM	0.956	0.792
3.16 µM	0.566	-0.133
10 µM	0.0831	-0.646
31.6 µM	0.00106	-0.916

Cc1cc(Nc2ccc(NC(=O)c3ccc(Nc4ccnc5ccccc45)cc3)cc2)nc(N)n1 [SGI-1027]
Settings	FV IC50 [µM]	GR50 [µM]	GRmin	drug GRADE
U2OS [1]	–	1.15	–	–
U2OS [3]	–	–	–	37.1
U2OS [5]	–	–	-0.799	–
U2OS [6]	1.62	–	–	–

Settings	fractional viability, U2OS [4]	normalized growth rate inhibition value, U2OS [2]
0.01 µM	0.975	0.952
0.0316 µM	0.977	1.02
0.1 µM	0.98	0.932
0.316 µM	0.975	0.948
1 µM	0.87	0.642
3.16 µM	0.0651	-0.651
10 µM	0.00115	-0.88
31.6 µM	0.0226	-0.717

CNc1cc(-c2cccc(Cl)c2Cl)nc(N)n1 [TH287]
Settings	FV IC50 [µM]	GR50 [µM]	GRmin	drug GRADE
U2OS [1]	–	0.672	–	–
U2OS [3]	–	–	–	60
U2OS [5]	–	–	-0.144	–
U2OS [6]	3.64	–	–	–

Settings	fractional viability, U2OS [4]	normalized growth rate inhibition value, U2OS [2]
0.01 µM	0.973	0.956
0.0316 µM	0.981	0.997
0.1 µM	0.976	0.99
0.316 µM	0.953	0.786
1 µM	0.787	0.278
3.16 µM	0.534	0.0764
10 µM	0.383	-0.106
31.6 µM	0.476	-0.187

CC(=O)O[C@H]1C(=O)[C@@]2(C)[C@H]([C@H](OC(=O)c3ccccc3)[C@]3(O)C[C@H](OC(=O)[C@H](O)[C@@H](NC(=O)c4ccccc4)c4ccccc4)C(C)=C1C3(C)C)[C@]1(OC(C)=O)CO[C@@H]1C[C@@H]2O [Taxol]
Settings	FV IC50 [µM]	GR50 [µM]	GRmin	drug GRADE
U2OS [1]	–	0.0907	–	–
U2OS [3]	–	–	–	75.6
U2OS [5]	–	–	0.104	–
U2OS [6]	0.577	–	–	–

Settings	fractional viability, U2OS [4]	normalized growth rate inhibition value, U2OS [2]
0.000100578 µM	0.991	1.13
0.000317827 µM	0.991	1.2
0.00100433 µM	0.991	1.23
0.00317369 µM	0.988	1.14
0.0100289 µM	0.98	1.06
0.0316912 µM	0.897	0.813
0.100144 µM	0.759	0.461
0.316456 µM	0.591	0.211
1 µM	0.44	0.0877

COc1cc2nccc(Oc3ccc(NC(=O)Nc4cc(C)on4)c(Cl)c3)c2cc1OC [Tivozanib]
Settings	FV IC50 [µM]	GR50 [µM]	GRmin	drug GRADE
U2OS [1]	–	3.87	–	–
U2OS [3]	–	–	–	7.57
U2OS [5]	–	–	-0.878	–
U2OS [6]	7.34	–	–	–

Settings	fractional viability, U2OS [4]	normalized growth rate inhibition value, U2OS [2]
0.01 µM	0.977	0.857
0.0316 µM	0.982	1.17
0.1 µM	0.98	1.05
0.316 µM	0.977	1.03
1 µM	0.977	0.812
3.16 µM	0.949	0.681
10 µM	0.229	-0.421
31.6 µM	0.0183	-0.823

CC[C@@]1(O)C(=O)OCc2c1cc1n(c2=O)Cc2cc3c(CN(C)C)c(O)ccc3nc2-1 [Topotecan]
Settings	FV IC50 [µM]	GR50 [µM]	GRmin	drug GRADE
U2OS [1]	–	0.0151	–	–
U2OS [3]	–	–	–	9.92
U2OS [5]	–	–	-0.0768	–
U2OS [6]	7.66	–	–	–

Settings	fractional viability, U2OS [4]	normalized growth rate inhibition value, U2OS [2]
0.00100578 µM	0.985	1.09
0.00317827 µM	0.985	0.979
0.0100433 µM	0.978	0.698
0.0317369 µM	0.94	0.105
0.100289 µM	0.963	0.14
0.316912 µM	0.923	0.0543
1.00144 µM	0.846	-0.044
3.16456 µM	0.675	-0.147
10 µM	0.444	-0.295

CC(C)[C@]12O[C@H]1[C@@H]1O[C@]13[C@]1(O[C@H]1C[C@H]1C4=C(CC[C@@]13C)C(=O)OC4)[C@@H]2O [Triptolide]
Settings	FV IC50 [µM]	GR50 [µM]	GRmin	drug GRADE
U2OS [1]	–	0.00421	–	–
U2OS [3]	–	–	–	8
U2OS [5]	–	–	-0.262	–
U2OS [6]	0.0112	–	–	–

Settings	fractional viability, U2OS [4]	normalized growth rate inhibition value, U2OS [2]
3.16 pM	0.981	1.03
31.6 pM	0.979	1.01
0.000316 µM	0.979	0.928
0.00316 µM	0.957	0.633
0.0316 µM	0.18	-0.197
0.316 µM	0.155	-0.249
3.16 µM	0.154	-0.267
31.6 µM	0.159	-0.258

CC(C)[C@@H]1NC(=O)[C@H](C)OC(=O)[C@@H](C(C)C)NC(=O)[C@@H](C(C)C)OC(=O)[C@H](C(C)C)NC(=O)[C@H](C)OC(=O)[C@@H](C(C)C)NC(=O)[C@@H](C(C)C)OC(=O)[C@H](C(C)C)NC(=O)[C@H](C)OC(=O)[C@@H](C(C)C)NC(=O)[C@@H](C(C)C)OC1=O [Valinomycin]
Settings	FV IC50 [µM]	GR50 [µM]	GRmin	drug GRADE
U2OS [1]	–	0.0108	–	–
U2OS [3]	–	–	–	34.4
U2OS [5]	–	–	-0.0918	–
U2OS [6]	4.06	–	–	–

Settings	fractional viability, U2OS [4]	normalized growth rate inhibition value, U2OS [2]
0.00100578 µM	0.993	1.02
0.00317827 µM	0.991	0.986
0.0100433 µM	0.874	0.171
0.0317369 µM	0.933	0.472
0.100289 µM	0.685	-0.0547
0.316912 µM	0.737	0.0438
1.00144 µM	0.675	-0.0358
3.16456 µM	0.553	-0.0823
10 µM	0.384	-0.225

O=C(CCCCCCC(=O)Nc1ccccc1)NO [Vorinostat]
Settings	FV IC50 [µM]	GR50 [µM]	GRmin	drug GRADE
U2OS [1]	–	0.274	–	–
U2OS [3]	–	–	–	28
U2OS [5]	–	–	-0.601	–
U2OS [6]	0.765	–	–	–

Settings	fractional viability, U2OS [4]	normalized growth rate inhibition value, U2OS [2]
0.00100578 µM	0.992	0.932
0.00317827 µM	0.99	1.11
0.0100433 µM	0.991	0.89
0.0317369 µM	0.985	0.906
0.100289 µM	0.973	0.901
0.316912 µM	0.875	0.396
1.00144 µM	0.365	-0.201
3.16456 µM	0.16	-0.515
10 µM	0.091	-0.591

COCC[n+]1c2c(n(Cc3cnccn3)c1C)C(=O)c1ccccc1C2=O [YM155]
Settings	FV IC50 [µM]	GR50 [µM]	GRmin	drug GRADE
U2OS [1]	–	0.00769	–	–
U2OS [3]	–	–	–	44.1
U2OS [5]	–	–	-0.913	–
U2OS [6]	0.0364	–	–	–

Settings	fractional viability, U2OS [4]	normalized growth rate inhibition value, U2OS [2]
3.16 pM	0.981	0.943
31.6 pM	0.981	1
0.000316 µM	0.983	1.02
0.00316 µM	0.962	0.777
0.01 µM	0.852	0.107
0.0316 µM	0.59	0.0141
0.1 µM	0.0412	-0.788
0.316 µM	0.00681	-0.79
1 µM	0.00318	-0.94
3.16 µM	0.00039	-0.882
10 µM	0	-0.967
31.6 µM	0.0019	-0.859
